From paper PMC2765639 (PLoS Neglected Tropical Diseases, 2009) come the findings set out here.

As a reminder, the EC50 is the concentration at which the effect is half-maximal.

Test [1] relates to L. major axenic amastigote-like population. Description: L. major axenic amastigote-like alamar blue assay (pH 4.9). It counts as cell-based, Leishmania major. Particulars: Leishmania major.
Test [2] has as its system L. major promastigotes. Description: L. major promastigote drug susceptibility assay (alamar blue, 384-well). It counts as cell-based, Leishmania major. Particulars: Leishmania major. The method, boiled down: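 Exponential-phase promastigotes (5,000/well) were exposed to compound for 44 h at 28°C with 5% CO2. Single-point screening used 10 µM in 1% DMSO, and duplicate 10-point curves spanned 0.01–5.00 µM.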
For orientation: Alamar Blue is a resazurin reagent that responds to reducing activity.

Test [3] has as its system L. major promastigotes. The test is described as follows: Flow cytometer-based growth inhibition and cytotoxicity assay. Conditions: Leishmania major, 48 h, read-out: L. major promastigote EC50 (AVE±SD) Confirmation Flow Cytometry. A general note: A flow cytometer gives signals particle by particle.
Test [4] deals with MDA-MB-231. Description: Mammalian cell line specificity assay (alamar blue). Format: cell-based, human. Conditions: Homo sapiens. The method, boiled down:
(§1)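 Cells exposed to compounds for 44–46 h at 37°C, 5% CO2, in 384-well format; 1% DMSO vehicle, 10% DMSO positive control (final). Growth inhibition read after 2–4 h with alamar blue.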

The subject of test [5] is PC-3. Described as above. It counts as cell-based, human. Particulars: Homo sapiens. The method, boiled down:
as §1

Test [6] concerns A549. Described as above. Format: cell-based, human. Conditions: Homo sapiens. The method, boiled down: as §1
Test [7] concerns IMR-90. The description is as above. Format: cell-based, human. Conditions: Homo sapiens. The method, boiled down: as §1
Test [8] relates to HeLa. Described as above. It counts as cell-based, human. Conditions: Homo sapiens, HeLa, read-out: HeLa EC50 (AVE±SD). The essentials:
as §1

The subject of test [9] is human cell lines. The test is described as follows: Human cell line panel (A549, HeLa, IMR-90, PC-3, MDA-MB-231). It counts as cell-based. Here is the method:
Mammalian cells were cultured and maintained according to ATCC specifications (ATCC, Manassas, VA). Cell line drug susceptibility assays were performed in final volumes of 25 µL using our previously described 384-well microtiter plate format,[39]. Briefly, for automated HTS procedures, cells (A549, IMR-90 and, HeLa, 1,000 cells; PC-3, 750 cells and; MDA-MB-231, 3,000 cells) in complete culture medium were seeded into each well of 384-well microtiter plates using a Titertek MAPC-2 bulk dispenser. Test and control compounds were added to individual wells as described above. Vehicle and positive controls were 1% DMSO and 10% DMSO, respectively (final well concentrations). Assay plates were incubated for 44–46 h at 37°C in the presence of 5% CO2 and growth inhibitory effects were determined as described above. Five µL of alamar blue reagent was added to each well and incubated for 2–4 h. Data were captured as described above.

SMILES strings stand for the structures. Like-named read-outs stand apart in the source and are kept apart here.

For `N[C@H](C(=O)O)[C@@H]1CC(Cl)=NO1` [Acivicin, reference compound], the half-maximal effective concentration (EC50) in [1] (pH 4.9, 144 h, 32°C, read-out: L. major axenic amastigote-like EC50 (AVE±SD) Confirmation Alamar Blue) is 1100 ± 60 nM; in test [2] (48 h, compounds from commercial supplier, 44 h + 4 h alamar blue, 28°C, read-out: L. major promastigote EC50 (AVE±SD) Confirmation Alamar Blue), 6 ± 1 nM; in test [2] (Table S1, PMLSC library samples, 10-point 0.01–5.00 µM, read-out: EC50 Ave ± SD, Lm) it was 177 ± 3 nM; in test [3], 40 ± 10 nM; in test [4] (MDA-MB-231, 44–46 h, alamar blue, read-out: MDA EC50 (AVE±SD)), more than 50000 nM; in [5] (PC-3, 44–46 h, alamar blue, read-out: PC-3 EC50 (AVE±SD)), more than 50000 nM. Moreover, the EC50 is 4400 ± 400 nM in test [6] (A549, 44–46 h, alamar blue, read-out: A549 EC50 (AVE±SD)); more than 5000 nM in test [6] (A549, Table S1, PMLSC library samples, read-out: EC50 Ave ± SD, A549); 6700 ± 400 nM in test [7] (IMR-90, 44–46 h, alamar blue, read-out: IMR90 EC50 (AVE±SD)); 3900 ± 3000 nM in test [8] (44–46 h, alamar blue). Moreover, in test [9], the “growth inhibition of human cell lines tested” value was “inhibited the growth of human cell lines tested”.
Turning to `NC(=O)c1cn([C@@H]2O[C@H](CO)[C@@H](O)[C@H]2O)c2ncnc(N)c12` [Sangivamycin, reference compound], the EC50 is 4300 ± 300 nM in test [1] (144 h, pH 4.9, read-out: L. major axenic amastigote-like EC50 (AVE±SD) Confirmation Alamar Blue); 164 ± 11 nM in test [2] (read-out: EC50 Ave ± SD, Lm); 140 ± 20 nM in test [3]; more than 50000 nM in test [4] (MDA-MB-231, read-out: MDA EC50 (AVE±SD)); more than 50000 nM in test [5] (PC-3, read-out: PC-3 EC50 (AVE±SD)); 70 ± 20 nM in [6] (A549, read-out: A549 EC50 (AVE±SD)). Also, the EC50 in test [6] (A549, read-out: EC50 Ave ± SD, A549) was 72 ± 5 nM; in [7] (IMR-90, read-out: IMR90 EC50 (AVE±SD)), more than 50000 nM; in test [8], more than 50000 nM. The “growth inhibition of human cell lines tested” value in test [9] is recorded as “inhibited the growth of human cell lines tested”.
